These results are taken from patent US8232273B2, “Heterocyclic compounds and methods of use” (Genentech, Inc., priority 2008, dated 2012).

Molecules are shown by their SMILES.

Sequence of Bcl-xL (GST-Bcl-xL) (Q07817 whole entry, species assumed): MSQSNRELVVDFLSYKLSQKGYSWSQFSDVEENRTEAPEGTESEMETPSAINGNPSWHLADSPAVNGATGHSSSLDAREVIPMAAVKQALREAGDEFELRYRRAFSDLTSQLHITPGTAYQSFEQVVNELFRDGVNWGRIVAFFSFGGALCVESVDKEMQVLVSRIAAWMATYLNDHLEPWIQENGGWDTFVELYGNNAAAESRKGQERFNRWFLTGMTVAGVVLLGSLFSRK

For the test, the target named is Bcl-xL (GST-Bcl-xL) (Homo sapiens, UniProt Q07817). The test is described as follows: TR-FRET binding assay, competition with F-Bak for the Bcl-xL binding site. The following applies: values listed in the order of Table 1, read-out: TR-FRET assay results (Ki), Bcl-xL. As to the method:
The measurement of competition of compounds of the invention with F-Bak for a Bcl-2 family protein (Bcl-xL) binding site using a Time Resolved Fluorescence Resonance Energy Transfer (TR-FRET) binding assay:
Test compounds were serially diluted in DMSO starting at 50 μM (2× starting concentration; 10% DMSO) and 10 μt transferred into a 384-well plate.
The samples are then mixed on a shaker for 1 minute then incubated for an additional 2 hours at room temperature. For each assay plate, a probe/antibody and protein/antibody/probe mixture were included as a negative and a positive control, respectively. Fluorescence was measured on the Envision (Perkin Elmer) using a 340/35 nm excitation filter and 520/525 (F-Bak) and 495/510 nm (Tb-labeled anti-his antibody) emission filters. Dissociation constants (Ki) were determined using Wang's equation (see, Wang, Z. X. An exact mathematical expression for describing competitive binding of two different ligands to a protein molecule. FEBS Lett. 1995 360:111-114). The TR-FRET assay can be performed in the presence of varying concentrations of human serum (HS) or fetal bovine serum (FBS).
Background: TR-FRET usually uses a lanthanide donor and a delayed reading to cut background.
As for `CC(=O)N1CCN(c2ccc(OCCCc3sc(N4CCc5cccc(C(=O)Nc6nc7ccccc7s6)c5C4)nc3C(=O)O)cc2)CC1` [Example 61, 5-{3-[4-(4-Acetyl-piperazin-1-yl)-phenoxy]-propyl}-2-[8-(benzothiazol-2-ylcarbamoyl)-3,4-dihydro-1H-isoquinolin-2-yl]-thiazole-4-carboxylic acid], the Ki – broadly, a dissociation constant, usually derived from enzyme kinetics or from competition with a known ligand – turned out to be 0.3 nM.
With `O=C(Nc1nc2ccccc2s1)c1cccc2c1CN(c1nc(C(=O)O)c(CCCOc3ccc(-c4ncnc5c(Br)csc45)cc3)s1)CC2` [Example 65], the Ki is 0.07 nM.
The result for `O=C(Nc1nc2ccccc2s1)c1cccc2c1CN(c1nc(C(=O)O)c(CCCOc3ccc(-n4ccnc4)cc3)s1)CC2` [Example 66, 5-(3-(4-(1H-imidazol-1-yl)phenoxy)propyl)-2-(8-(benzo[d]thiazol-2-ylcarbamoyl)-3,4-dihydroisoquinolin-2(1H)-yl)thiazole-4-carboxylic acid] reads 0.1 nM; that for `O=C(Nc1nc2ccccc2s1)c1cccc2c1CN(c1nc(C(=O)O)c(CCCOc3ccc(-n4cncn4)cc3)s1)CC2` [Example 67, 5-(3-(4-(1H-1,2,4-triazol-1-yl)phenoxy)propyl)-2-(8-(benzo[d]thiazol-2-ylcarbamoyl)-3,4-dihydroisoquinolin-2(1H)-yl)thiazole-4-carboxylic acid], 0.05 nM.
Regarding `Cn1cnnc1-c1ccc(OCCCc2sc(N3CCc4cccc(C(=O)Nc5nc6ccccc6s5)c4C3)nc2C(=O)O)cc1` [Example 68, 2-(8-(benzo[d]thiazol-2-ylcarbamoyl)-3,4-dihydroisoquinolin-2(1H)-yl)-5-(3-(4-(4-methyl-4H-1,2,4-triazol-3-yl)phenoxy)propyl)thiazole-4-carboxylic acid], the Ki was 0.2 nM.
The result for `CC(C)Nc1ncnc2c(-c3ccc(OCCCc4sc(N5CCc6cccc(C(=O)Nc7nc8ccccc8s7)c6C5)nc4C(=O)O)cc3)csc12` [Example 69, 2-[8-(Benzothiazol-2-ylcarbamoyl)-3,4-dihydro-1H-isoquinolin-2-yl]-5-{3-[4-(4-isopropylamino-thieno[3,2-d]pyrimidin-7-yl)-phenoxy]-propyl}-thiazole-4-carboxylic acid] reads 0.5 nM; that for `O=C(Nc1nc2ccccc2s1)c1cccc2c1CN(c1nc(C(=O)O)c(CCCCn3ccnc3)s1)CC2` [Example 72, 5-(4-(1H-imidazol-1-yl)butyl)-2-(8-(benzo[d]thiazol-2-ylcarbamoyl)-3,4-dihydroisoquinolin-2(1H)-yl)thiazole-4-carboxylic acid], 3 nM.
`O=C(Nc1nc2ccccc2s1)c1cccc2c1CN(c1nc(C(=O)O)c(CCCOc3ccc(-c4cn[nH]c4)cc3)s1)CC2` [Example 73, 5-(3-(4-(1H-pyrazol-4-yl)phenoxy)propyl)-2-(8-(benzo[d]thiazol-2-ylcarbamoyl)-3,4-dihydroisoquinolin-2(1H)-yl)thiazole-4-carboxylic acid]: the Ki amounted to 0.08 nM.
Consider `N[C@H]1[C@@H]2CCC[C@H]1[C@@H](c1ccc(OCCCc3sc(N4CCc5cccc(C(=O)Nc6nc7ccccc7s6)c5C4)nc3C(=O)O)cc1)CC2` [Example 80, 5-(3-(4-((1S,2S,5R,9S)-9-aminobicyclo[3.3.1]nonan-2-yl)phenoxy)propyl)-2-(8-(benzo[d]thiazol-2-ylcarbamoyl)-3,4-dihydroisoquinolin-2(1H)-yl)thiazole-4-carboxylic acid], for which the Ki was 0.5 nM.
In the case of `O=C(Nc1nc2ccccc2s1)c1cccc2c1CN(c1nc(C(=O)O)c(CCCOc3ccc(-c4cnn(CCN5CCOCC5)c4)cc3)s1)CC2` [Example 83, 2-(8-(benzo[d]thiazol-2-ylcarbamoyl)-3,4-dihydroisoquinolin-2(1H)-yl)-5-(3-(4-(1-(2-morpholinoethyl)-1H-pyrazol-4-yl)phenoxy)propyl)thiazole-4-carboxylic acid], the Ki was determined as 0.05 nM.
The result for `Cc1c(CN2CCN(C)CC2)cnn1-c1ccc(OCCCc2sc(N3CCc4cccc(C(=O)Nc5nc6ccccc6s5)c4C3)nc2C(=O)O)cc1` [Example 85, 2-(8-(benzo[d]thiazol-2-ylcarbamoyl)-3,4-dihydroisoquinolin-2(1H)-yl)-5-(3-(4-(5-methyl-4-((4-methylpiperazin-1-yl)methyl)-1H-pyrazol-1-yl)phenoxy)propyl)thiazole-4-carboxylic acid] reads 0.05 nM; that for `CN1CCN(Cc2ccc(OCCCc3sc(N4CCc5cccc(C(=O)Nc6nc7ccccc7s6)c5C4)nc3C(=O)O)cc2)CC1` [Example 89, 2-[8-(Benzothiazol-2-ylcarbamoyl)-3,4-dihydro-1H-isoquinolin-2-yl]-5-{3-[4-(4-methyl-piperazin-1-ylmethyl)-phenoxy]-propyl}-thiazole-4-carboxylic acid], 0.1 nM.
For `CN1CCN(CCCN(CCCc2sc(N3CCc4cccc(C(=O)Nc5nc6ccccc6s5)c4C3)nc2C(=O)O)c2ncnc3c2cnn3-c2ccc(O)cc2)CC1` [Example 91, 2-(8-(benzo[d]thiazol-2-ylcarbamoyl)-3,4-dihydroisoquinolin-2(1H)-yl)-5-(3-((1-(4-hydroxyphenyl)-1H-pyrazolo[3,4-d]pyrimidin-4-yl)(3-(4-methylpiperazin-1-yl)propyl)amino)propyl)thiazole-4-carboxylic acid], the Ki came out at 0.7 nM.
`CN(C)CCCNc1ncnc2c1cnn2-c1ccc(OCCCc2ccc(N3CCc4cccc(C(=O)Nc5nc6ccccc6s5)c4C3)nc2C(=O)O)cc1` [Example 92, 6-(8-(benzo[d]thiazol-2-ylcarbamoyl)-3,4-dihydroisoquinolin-2(1H)-yl)-3-(3-(4-(4-(3-(dimethylamino)propylamino)-1H-pyrazolo[3,4-d]pyrimidin-1-yl)phenoxy)propyl)picolinic acid]: the Ki worked out at 0.05 nM.
On to `O=C(Nc1nc2ccccc2s1)c1cccc2c1CN(c1ccc(CCCO)c(C(=O)O)n1)CC2` [Example 99, 6-[8-(Benzothiazol-2-ylcarbamoyl)-3,4-dihydro-1H-isoquinolin-2-yl]-3-(3-hydroxy-propyl)-pyridine-2-carboxylic acid], for which the Ki was 125 nM.
The result for `CN1CCN(c2ccc(OCCCc3ccc(N4CCc5cccc(C(=O)Nc6nc7ccccc7s6)c5C4)nc3C(=O)O)c(F)c2)CC1` [Example 101, 6-(8-(benzo[d]thiazol-2-ylcarbamoyl)-3,4-dihydroisoquinolin-2(1H)-yl)-3-(3-(2-fluoro-4-(4-methylpiperazin-1-yl)phenoxy)propyl)picolinic acid] reads 0.7 nM; that for `CN(C)CCCc1ccc(OCCCc2sc(N3CCc4cccc(C(=O)Nc5nc6ccccc6s5)c4C3)nc2C(=O)O)cc1` [Example 107, 2-(8-(benzo[d]thiazol-2-ylcarbamoyl)-3,4-dihydroisoquinolin-2(1H)-yl)-5-(3-(4-(3-(dimethylamino)propyl)phenoxy)propyl)thiazole-4-carboxylic acid], 0.15 nM.
Take `O=C(Nc1nc2ccccc2s1)c1cccc2c1CN(c1nc(C(=O)O)c(C#Cc3ccc4cc(OCCCN5CCOCC5)ccc4c3)s1)CC2` [Example 110, 2-(8-(benzo[d]thiazol-2-ylcarbamoyl)-3,4-dihydroisoquinolin-2(1H)-yl)-5-((6-(3-morpholinopropoxy)naphthalen-2-yl)ethynyl)thiazole-4-carboxylic acid]: the Ki was found to be 0.07 nM.
